# From PubChem BioAssay (NCI)
# “And” between values parts separate entries of the source, which are not always exact repeats. Equal values may be shown once.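 How tested: cells in 96-well plates exposed to compound for 48 hours at five concentrations. At the GI50, growth is halved. TGI denotes the concentration required for complete inhibition of growth.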 Where a SMILES comes first, the peptide text is derived from it. The star is where a group is joined. Boc = CC(C)(C)OC(=O)*; OBn = c1ccc(CO*)cc1
# Legend:
# Test in all cases: NCI anticancer screen, dose series, 48 h
# [1] = tested on: U251 CNS
# [2] = tested on: SK-OV-3 ovarian
# [3] = tested on: 786-0 renal
# [4] = tested on: HCC-2998 colon
# [5] = tested on: OVCAR-3 ovarian
# [6] = tested on: A549 NSCLC
# [7] = tested on: SF-268 CNS
# [8] = tested on: RPMI-8226 leukemia
# [9] = tested on: COLO 205 colon
# [10] = tested on: PC-3 prostate
# [11] = tested on: A498 renal
# [12] = tested on: HT29 colon
# [13] = tested on: IGROV1 ovarian
# [14] = tested on: OVCAR-4 ovarian
# [15] = tested on: NCI-H460 lung
# [16] = tested on: M14 melanoma
# [17] = tested on: MCF7 breast
# [18] = tested on: SW-620 colon
# [19] = tested on: EKVX NSCLC
# [20] = tested on: SR leukemia
# [21] = tested on: CCRF-CEM leukemia
# [22] = tested on: MALME-3M melanoma
# [23] = tested on: NCI-H226 lung
# [24] = tested on: HL-60(TB) leukemia
# [25] = tested on: SNB-75 CNS
# [26] = tested on: NCI-H522 lung
# [27] = tested on: UO-31 renal
# [28] = tested on: HOP-62 NSCLC
# [29] = tested on: UACC-62 melanoma
# [30] = tested on: OVCAR-5 ovarian
# [31] = tested on: K-562 leukemia
# [32] = tested on: SF-539 CNS
# [33] = tested on: SK-MEL-5 melanoma
# [34] = tested on: MDA-MB-231 breast
# [35] = tested on: SN12C renal
# [36] = tested on: MOLT-4 leukemia
# [37] = tested on: RXF 393 renal
# [38] = tested on: SNB-19 CNS
# [39] = tested on: CAKI-1 renal
# [40] = tested on: NCI-H23 lung
# [41] = tested on: SK-MEL-2 melanoma
# [42] = tested on: ACHN renal
# [43] = tested on: HOP-92 NSCLC
# [44] = tested on: NCI/ADR-RES ovarian
# [45] = tested on: HCT-116 colon
# [46] = tested on: UACC-257 melanoma
# [47] = tested on: KM12 colon
# [48] = tested on: HS 578T breast
# [49] = tested on: OVCAR-8 ovarian
# [50] = tested on: MDA-N
# [51] = tested on: BT-549 breast
# [52] = tested on: TK-10 renal
# [53] = tested on: MDA-MB-435
# [54] = tested on: DU-145 prostate
# [55] = tested on: HCT-15 colon
# [56] = tested on: SK-MEL-28 melanoma
# [57] = tested on: SF-295 CNS
# [58] = tested on: T-47D breast
# [59] = tested on: LOX IMVI melanoma
smiles,measurement,setting,value
Cc1cn(C2CC(N=[N+]=[N-])C(C(=O)O)O2)c(=O)[nH]c1=O (centres undefined),TGI,[1],> 100 µM
same,TGI,[2],> 100 µM
same,TGI,[3],> 100 µM
same,TGI,[4],> 100 µM
same,TGI,[5],> 100 µM
same,TGI,[6],> 100 µM
same,TGI,[7],> 100 µM
same,TGI,[8],> 100 µM
same,TGI,[9],> 100 µM
same,TGI,[10],> 100 µM
same,TGI,[11],> 100 µM
same,TGI,[12],> 100 µM
same,TGI,[13],> 100 µM
same,TGI,[14],> 100 µM
same,TGI,[15],> 100 µM
same,TGI,[16],> 100 µM
same,TGI,[17],> 100 µM
same,TGI,[18],> 100 µM
same,TGI,[19],> 100 µM
same,TGI,[20],> 100 µM
same,TGI,[21],> 100 µM
same,TGI,[22],> 100 µM
same,TGI,[23],> 100 µM
same,TGI,[24],> 100 µM
same,TGI,[25],> 100 µM
same,TGI,[26],> 100 µM
same,TGI,[27],> 100 µM
same,TGI,[28],> 100 µM
same,TGI,[29],> 100 µM
same,TGI,[30],> 100 µM
same,TGI,[31],> 100 µM
same,TGI,[32],> 100 µM
same,TGI,[33],> 100 µM
same,TGI,[34],> 100 µM
same,TGI,[35],> 100 µM
same,TGI,[36],> 100 µM
same,TGI,[37],> 100 µM
same,TGI,[38],> 100 µM
same,TGI,[39],> 100 µM
same,TGI,[40],> 100 µM
same,TGI,[41],> 100 µM
same,TGI,[42],> 100 µM
same,TGI,[43],> 100 µM
same,TGI,[44],> 100 µM
same,TGI,[45],> 100 µM
same,TGI,[46],> 100 µM
same,TGI,[47],> 100 µM
same,TGI,[48],> 100 µM
same,TGI,[49],> 100 µM
same,TGI,[50],> 100 µM
same,TGI,[51],> 100 µM
same,TGI,[52],> 100 µM
same,TGI,[53],> 100 µM
same,TGI,[54],> 100 µM
same,TGI,[55],> 100 µM
CC(C)C(NC(=O)CNC(=O)C1CCCN1C(=O)C(NC(=O)OC(C)(C)C)C(C)C)C(=O)NCC(=O)OCc1ccccc1 (centres undefined) (Boc-VPGVG-OBn; configuration not given here),TGI,[1],> 100 µM
same,TGI,[2],> 100 µM
same,TGI,[3],> 100 µM
same,TGI,[4],> 100 µM
same,TGI,[5],> 100 µM
same,TGI,[6],> 100 µM
same,TGI,[7],> 100 µM
same,TGI,[8],> 100 µM
same,TGI,[9],> 100 µM
same,TGI,[10],> 100 µM
same,TGI,[11],> 100 µM
same,TGI,[12],> 100 µM
same,TGI,[13],> 100 µM
same,TGI,[14],> 100 µM
same,TGI,[15],> 100 µM
same,TGI,[16],> 100 µM
same,TGI,[17],> 100 µM
same,TGI,[18],> 100 µM
same,TGI,[19],> 100 µM
same,TGI,[20],> 100 µM
same,TGI,[21],> 100 µM
same,TGI,[22],> 100 µM
same,TGI,[23],> 100 µM
same,TGI,[24],> 100 µM
same,GI50,[25],35.3 µM and > 100 µM
same,TGI,[25],> 100 µM
same,TGI,[26],> 100 µM
same,TGI,[56],> 100 µM
same,TGI,[27],> 100 µM
same,TGI,[28],> 100 µM
same,TGI,[29],> 100 µM
same,TGI,[30],> 100 µM
same,TGI,[31],> 100 µM
same,TGI,[32],> 100 µM
same,TGI,[33],> 100 µM
same,TGI,[34],> 100 µM
same,TGI,[35],> 100 µM
same,TGI,[36],> 100 µM
same,TGI,[37],> 100 µM
same,TGI,[38],> 100 µM
same,TGI,[39],> 100 µM
same,TGI,[40],> 100 µM
same,TGI,[41],> 100 µM
same,TGI,[42],> 100 µM
same,TGI,[57],> 100 µM
same,TGI,[43],> 100 µM
same,TGI,[44],> 100 µM
same,TGI,[45],> 100 µM
same,TGI,[58],> 100 µM
same,TGI,[46],> 100 µM
same,TGI,[47],> 100 µM
same,TGI,[48],> 100 µM
same,TGI,[49],> 100 µM
same,TGI,[50],> 100 µM
same,TGI,[59],> 100 µM
same,TGI,[52],> 100 µM
same,TGI,[53],> 100 µM
same,TGI,[54],> 100 µM
same,TGI,[55],> 100 µM
